Data reported in patent US8952024B2, “Herbicidal pyrimidone derivatives” (E I du Pont de Nemours and Company, priority 2009, dated 2015).

What was measured:
Assay in all cases: Test B pre-/postemergence plant response
Assay type in all cases: in vivo
[1] = tested on: Italian ryegrass (Lolium multiflorum); conditions: Postemergence
In short: (§1)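 Each species received compound formulated in non-phytotoxic solvent with surfactant, either at planting into a loam and sand blend or as a foliar spray once plants reached 2 to 18 cm in peat-based medium. Plants stayed in the greenhouse 13 to 15 days before visual evaluation against controls, scored 0 (no effect) to 100 (complete control).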

[2] = tested on: Surinam grass (Brachiaria decumbens); conditions: Postemergence
In short: as §1

[3] = tested on: bermudagrass (Cynodon dactylon); conditions: for Bermudagrass plant response rating (0 to 100 scale): 62 g ai/ha, postemergence, 0 is no effect, 100 is complete control; for Plant response rating, Bermudagrass: Postemergence
In short: as §1

[4] = tested on: blackgrass (Alopecurus myosuroides); conditions: for Blackgrass plant response rating (0 to 100 scale): 62 g ai/ha, postemergence, 0 is no effect, 100 is complete control; for Plant response rating, Blackgrass: Postemergence
In short: as §1

[5] = tested on: corn (Zea mays); conditions: Postemergence
In short: as §1

[6] = tested on: downy bromegrass (Bromus tectorum); conditions: for Bromegrass, Downy plant response rating (0 to 100 scale): 62 g ai/ha, postemergence, 0 is no effect, 100 is complete control; for Plant response rating, Bromegrass, Downy: Postemergence
In short: as §1

[7] = tested on: giant foxtail (Setaria faberii); conditions: Postemergence
In short: as §1

[8] = tested on: goosegrass (Eleusine indica); conditions: Postemergence
In short: as §1

[9] = tested on: green foxtail (Setaria viridis); conditions: Postemergence
In short: as §1

[10] = tested on: johnsongrass (Sorghum halepense); conditions: Postemergence
In short: as §1

[11] = tested on: kochia (Kochia scoparia); conditions: Postemergence
In short: as §1

[12] = tested on: lambsquarters (Chenopodium album); conditions: Postemergence
In short: as §1

[13] = tested on: large crabgrass (Digitaria sanguinalis); conditions: Postemergence
In short: as §1

[14] = tested on: ragweed (common ragweed, Ambrosia elatior); conditions: Postemergence
In short: as §1

[15] = tested on: velvetleaf (Abutilon theophrasti); conditions: Postemergence
In short: as §1

[16] = tested on: woolly cupgrass (Eriochloa villosa); conditions: Postemergence
In short: as §1

[17] = tested on: yellow nutsedge (Cyperus esculentus); conditions: Postemergence
In short: as §1

[18] = 31 g ai/ha, 0 to 100 scale (0 no effect, 100 complete control)
[19] = 125 g ai/ha, scale 0 to 100 (0 no effect, 100 complete control)
[20] = 250 g ai/ha, scale 0 to 100 (0 no effect, 100 complete control), 13 to 15 days

## O=C1CCCC(O)=C1C(=O)c1cnc(C2CC2)n(C2CCCCC2)c1=O [Compound 160]
[1]; [18]
  Plant response rating, Ryegrass, Italian: 0
[1]; [19]
  Plant response rating, Ryegrass, Italian: 35
[1]; [20]
  Plant response rating, Ryegrass, Italian: 35
[2]; [18]
  Plant response rating, Surinam Grass: 40
[2]; [19]
  Plant response rating, Surinam Grass: 60
[2]; [20]
  Plant response rating, Surinam Grass: 75
[3]; 13 to 15 days
  Bermudagrass plant response rating (0 to 100 scale): 75
[3]; [18]
  Plant response rating, Bermudagrass: 65
[3]; [19]
  Plant response rating, Bermudagrass: 90
[3]; [20]
  Plant response rating, Bermudagrass: 95
[4]; 13 to 15 days
  Blackgrass plant response rating (0 to 100 scale): 10
[4]; [18]
  Plant response rating, Blackgrass: 5
[4]; [19]
  Plant response rating, Blackgrass: 20
[4]; [20]
  Plant response rating, Blackgrass: 25
[5]; [18]
  Plant response rating, Corn: 15
[5]; [19]
  Plant response rating, Corn: 50
[5]; [20]
  Plant response rating, Corn: 60
[6]; 13 to 15 days
  Bromegrass, Downy plant response rating (0 to 100 scale): 5
[6]; [18]
  Plant response rating, Bromegrass, Downy: 0
[6]; [19]
  Plant response rating, Bromegrass, Downy: 50
[6]; [20]
  Plant response rating, Bromegrass, Downy: 55
[7]; [18]
  Plant response rating, Foxtail, Giant: 70
[7]; [19]
  Plant response rating, Foxtail, Giant: 75
[7]; [20]
  Plant response rating, Foxtail, Giant: 85
[8]; [18]
  Plant response rating, Goosegrass: 80
[8]; [19]
  Plant response rating, Goosegrass: 90
[8]; [20]
  Plant response rating, Goosegrass: 90
[9]; [18]
  Plant response rating, Foxtail, Green: 55
[9]; [19]
  Plant response rating, Foxtail, Green: 70
[9]; [20]
  Plant response rating, Foxtail, Green: 98
[10]; [18]
  Plant response rating, Johnsongrass: 45
[10]; [19]
  Plant response rating, Johnsongrass: 65
[10]; [20]
  Plant response rating, Johnsongrass: 75
[11]; [18]
  Plant response rating, Kochia: 90
[11]; [19]
  Plant response rating, Kochia: 100
[11]; [20]
  Plant response rating, Kochia: 100
[12]; [18]
  Plant response rating, Lambsquarters: 95
[12]; [19]
  Plant response rating, Lambsquarters: 98
[12]; [20]
  Plant response rating, Lambsquarters: 98
[13]; [18]
  Plant response rating, Crabgrass, Large: 80
[13]; [19]
  Plant response rating, Crabgrass, Large: 95
[13]; [20]
  Plant response rating, Crabgrass, Large: 95
[14]; [18]
  Plant response rating, Ragweed: 80
[14]; [19]
  Plant response rating, Ragweed: 98
[14]; [20]
  Plant response rating, Ragweed: 98
[15]; [18]
  Plant response rating, Velvetleaf: 90
[15]; [19]
  Plant response rating, Velvetleaf: 100
[15]; [20]
  Plant response rating, Velvetleaf: 100
[16]; [18]
  Plant response rating, Cupgrass, Woolly: 65
[16]; [19]
  Plant response rating, Cupgrass, Woolly: 85
[16]; [20]
  Plant response rating, Cupgrass, Woolly: 95
[17]; [18]
  Plant response rating, Nutsedge, Yellow: 65
[17]; [19]
  Plant response rating, Nutsedge, Yellow: 80
[17]; [20]
  Plant response rating, Nutsedge, Yellow: 80

## Cc1ccc(-n2c(-c3cc(F)cc(F)c3)ncc(C(=O)C3=C(O)CCCC3=O)c2=O)cc1 [Compound 162]
[1]; [18]
  Plant response rating, Ryegrass, Italian: 40
[1]; [19]
  Plant response rating, Ryegrass, Italian: 80
[1]; [20]
  Plant response rating, Ryegrass, Italian: 90
[2]; [18]
  Plant response rating, Surinam Grass: 65
[2]; [19]
  Plant response rating, Surinam Grass: 75
[2]; [20]
  Plant response rating, Surinam Grass: 85
[3]; 13 to 15 days
  Bermudagrass plant response rating (0 to 100 scale): 95
[3]; [18]
  Plant response rating, Bermudagrass: 85
[3]; [19]
  Plant response rating, Bermudagrass: 100
[3]; [20]
  Plant response rating, Bermudagrass: 100
[4]; 13 to 15 days
  Blackgrass plant response rating (0 to 100 scale): 40
[4]; [18]
  Plant response rating, Blackgrass: 30
[4]; [19]
  Plant response rating, Blackgrass: 55
[4]; [20]
  Plant response rating, Blackgrass: 65
[5]; [18]
  Plant response rating, Corn: 50
[5]; [19]
  Plant response rating, Corn: 80
[5]; [20]
  Plant response rating, Corn: 85
[6]; 13 to 15 days
  Bromegrass, Downy plant response rating (0 to 100 scale): 30
[6]; [18]
  Plant response rating, Bromegrass, Downy: 20
[6]; [19]
  Plant response rating, Bromegrass, Downy: 45
[6]; [20]
  Plant response rating, Bromegrass, Downy: 50
[7]; [18]
  Plant response rating, Foxtail, Giant: 85
[7]; [19]
  Plant response rating, Foxtail, Giant: 98
[7]; [20]
  Plant response rating, Foxtail, Giant: 98
[8]; [18]
  Plant response rating, Goosegrass: 60
[8]; [19]
  Plant response rating, Goosegrass: 90
[8]; [20]
  Plant response rating, Goosegrass: 98
[9]; [18]
  Plant response rating, Foxtail, Green: 98
[9]; [19]
  Plant response rating, Foxtail, Green: 98
[9]; [20]
  Plant response rating, Foxtail, Green: 100
[10]; [18]
  Plant response rating, Johnsongrass: 98
[10]; [19]
  Plant response rating, Johnsongrass: 100
[10]; [20]
  Plant response rating, Johnsongrass: 100
[11]; [18]
  Plant response rating, Kochia: 20
[11]; [19]
  Plant response rating, Kochia: 75
[11]; [20]
  Plant response rating, Kochia: 80
[12]; [18]
  Plant response rating, Lambsquarters: 80
[12]; [19]
  Plant response rating, Lambsquarters: 98
[12]; [20]
  Plant response rating, Lambsquarters: 100
[13]; [18]
  Plant response rating, Crabgrass, Large: 80
[13]; [19]
  Plant response rating, Crabgrass, Large: 98
[13]; [20]
  Plant response rating, Crabgrass, Large: 98
[14]; [18]
  Plant response rating, Ragweed: 90
[14]; [19]
  Plant response rating, Ragweed: 100
[14]; [20]
  Plant response rating, Ragweed: 100
[15]; [18]
  Plant response rating, Velvetleaf: 80
[15]; [19]
  Plant response rating, Velvetleaf: 95
[15]; [20]
  Plant response rating, Velvetleaf: 100
[16]; [18]
  Plant response rating, Cupgrass, Woolly: 90
[16]; [19]
  Plant response rating, Cupgrass, Woolly: 100
[16]; [20]
  Plant response rating, Cupgrass, Woolly: 100
[17]; [18]
  Plant response rating, Nutsedge, Yellow: 25
[17]; [19]
  Plant response rating, Nutsedge, Yellow: 75
[17]; [20]
  Plant response rating, Nutsedge, Yellow: 80
